Source: PubChem BioAssay (NCI)
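All cell lines were grown in 96-well plates and treated with compound for 48 hours. TGI: concentration producing complete growth inhibition.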

Experiments:
Assay in all cases: NCI tumour cell line growth inhibition, 48 h
A498 renal = system: A498 renal
A549 NSCLC = system: A549 NSCLC
CAKI-1 renal = system: CAKI-1 renal
CCRF-CEM leukemia = system: CCRF-CEM leukemia
COLO 205 colon = system: COLO 205 colon
DLD-1 colon = system: DLD-1 colon
DMS 114 small cell lung = system: DMS 114 small cell lung
DMS 273 small cell lung = system: DMS 273 small cell lung
EKVX NSCLC = system: EKVX NSCLC
HCC-2998 colon = system: HCC-2998 colon
HCT-116 colon = system: HCT-116 colon
HCT-15 colon = system: HCT-15 colon
HL-60(TB) leukemia = system: HL-60(TB) leukemia
HOP-18 NSCLC = system: HOP-18 NSCLC
HOP-62 NSCLC = system: HOP-62 NSCLC
HOP-92 NSCLC = system: HOP-92 NSCLC
HT29 colon = system: HT29 colon
IGROV1 ovarian = system: IGROV1 ovarian
K-562 leukemia = system: K-562 leukemia
KM12 colon = system: KM12 colon
KM20L2 colon = system: KM20L2 colon
LOX IMVI melanoma = system: LOX IMVI melanoma
M19-MEL melanoma = system: M19-MEL melanoma
MALME-3M melanoma = system: MALME-3M melanoma
MCF7 breast = system: MCF7 breast
MOLT-4 leukemia = system: MOLT-4 leukemia
NCI-H226 lung = system: NCI-H226 lung
NCI-H23 lung = system: NCI-H23 lung
NCI-H460 lung = system: NCI-H460 lung
NCI-H522 lung = system: NCI-H522 lung
NCI/ADR-RES ovarian = system: NCI/ADR-RES ovarian
OVCAR-3 ovarian = system: OVCAR-3 ovarian
OVCAR-4 ovarian = system: OVCAR-4 ovarian
OVCAR-5 ovarian = system: OVCAR-5 ovarian
OVCAR-8 ovarian = system: OVCAR-8 ovarian
P388 leukemia = system: P388 leukemia
P388/ADR leukemia = system: P388/ADR leukemia
RPMI-8226 leukemia = system: RPMI-8226 leukemia
RXF 393 renal = system: RXF 393 renal
SF-268 CNS = system: SF-268 CNS
SF-295 CNS = system: SF-295 CNS
SF-539 CNS = system: SF-539 CNS
SK-MEL-2 melanoma = system: SK-MEL-2 melanoma
SK-MEL-28 melanoma = system: SK-MEL-28 melanoma
SK-MEL-5 melanoma = system: SK-MEL-5 melanoma
SK-OV-3 ovarian = system: SK-OV-3 ovarian
SN12C renal = system: SN12C renal
SN12K1 renal = system: SN12K1 renal
SNB-19 CNS = system: SNB-19 CNS
SNB-75 CNS = system: SNB-75 CNS
SNB-78 CNS = system: SNB-78 CNS
SW-620 colon = system: SW-620 colon
U251 CNS = system: U251 CNS
UACC-257 melanoma = system: UACC-257 melanoma
UACC-62 melanoma = system: UACC-62 melanoma
UO-31 renal = system: UO-31 renal
XF 498 CNS = system: XF 498 CNS

## CCCCCCCCCCCCCCCCCCOCC(O)CO (configuration not stated)
A498 renal
  TGI: > 3.96 µM
A549 NSCLC
  TGI: 5.32 µM
CAKI-1 renal
  TGI: > 5.39 µM
CCRF-CEM leukemia
  TGI: > 22.5 µM
COLO 205 colon
  TGI: > 25 µM
DLD-1 colon
  TGI: > 25 µM
DMS 114 small cell lung
  TGI: > 25 µM
DMS 273 small cell lung
  TGI: > 7.73 µM
EKVX NSCLC
  TGI: > 14.1 µM
HCC-2998 colon
  TGI: > 25 µM
HCT-116 colon
  TGI: > 25 µM
HCT-15 colon
  TGI: > 25 µM
HL-60(TB) leukemia
  TGI: > 21.4 µM
HOP-18 NSCLC
  TGI: > 2.5 µM
HOP-62 NSCLC
  TGI: 22.7 µM
HOP-92 NSCLC
  TGI: 24.7 µM
HT29 colon
  TGI: > 15.8 µM
IGROV1 ovarian
  TGI: > 23.7 µM
K-562 leukemia
  TGI: > 25 µM
KM12 colon
  TGI: > 25 µM
KM20L2 colon
  TGI: > 25 µM
LOX IMVI melanoma
  TGI: > 25 µM
M19-MEL melanoma
  TGI: 24.6 µM
MALME-3M melanoma
  TGI: > 21.1 µM
MCF7 breast
  TGI: > 25 µM
MOLT-4 leukemia
  TGI: > 25 µM
NCI-H226 lung
  TGI: > 24.2 µM
NCI-H23 lung
  TGI: > 25 µM
NCI-H460 lung
  TGI: > 23 µM
NCI-H522 lung
  TGI: 20.9 µM
NCI/ADR-RES ovarian
  TGI: > 25 µM
OVCAR-3 ovarian
  TGI: > 25 µM
OVCAR-4 ovarian
  TGI: > 25 µM
OVCAR-5 ovarian
  TGI: > 25 µM
OVCAR-8 ovarian
  TGI: > 25 µM
P388 leukemia
  TGI: > 14.1 µM
P388/ADR leukemia
  TGI: > 25 µM
RPMI-8226 leukemia
  TGI: > 25 µM
RXF 393 renal
  TGI: > 24.1 µM
SF-268 CNS
  TGI: > 25 µM
SF-295 CNS
  TGI: > 25 µM
SF-539 CNS
  TGI: > 25 µM
SK-MEL-2 melanoma
  TGI: > 25 µM
SK-MEL-28 melanoma
  TGI: > 25 µM
SK-MEL-5 melanoma
  TGI: 3.65 µM
SK-OV-3 ovarian
  TGI: > 25 µM
SN12C renal
  TGI: > 25 µM
SN12K1 renal
  TGI: > 25 µM
SNB-19 CNS
  TGI: > 25 µM
SNB-75 CNS
  TGI: 24.8 µM
SNB-78 CNS
  TGI: > 25 µM
SW-620 colon
  TGI: > 17 µM
U251 CNS
  TGI: > 25 µM
UACC-257 melanoma
  TGI: > 25 µM
UACC-62 melanoma
  TGI: > 25 µM
UO-31 renal
  TGI: 25 µM
XF 498 CNS
  TGI: > 25 µM
